Test results as given in US9156790B2, “Anticancer P21-activated kinase inhibitors” (Ohio State Innovation Foundation, priority 2013, dated 2015).
“Also recorded” adds a separate entry of the source.

Experiments:
BCPAP cells = assay: MTT cell viability assay, BCPAP; format: cell-based, Human; conditions: Homo sapiens, BCPAP, 72-hours of exposure, 1% FBS, mean±standard deviation (n=3), read-out: IC50 for reducing viability of BCPAP cells versus DMSO control
Excerpt: (§1) Human thyroid cancer BCPAP, TPC1, and FTC133 cell lines were the generous gifts of Drs. Rebecca Schweppe and Bryan Haugen (University of Colorado Denver) (Schweppe et al., The Journal of clinical endocrinology and metabolism 83:4331-4341 (2008)) with permission from the following originating laboratories: BCPAP—Dr. Fabien, Centre Hospitalier Lyon-Sud, France (Fabien et al., Cancer 73:2206-2212 (1994)); TPC1—Dr. Sato, Kanazawa University, Japan (Tanaka et al., Virology 161:62-411 (1987)); and FTC133—Dr. Goretzki, University of Leipzig, Germany (Goretzki et al., Recent Results Cancer Res 118:48-63 (1990)). The obtained cell lines were confirmed for identity by DNA fingerprinting. BCPAP was grown in RPMI 1640 medium (Life Technologies Co., Carlsbad, Calif.) while FTC133 and TPC1 were grown in DMEM (Life Technologies Co.), both supplemented with 10% fetal bovine serum (FBS) and NEAA unless as noted for experiments.
(§2) The effect of OSU-03012 and its derivatives on cell viability was assessed by using the 3-(4,5-dimethylthiazol-2-yl)-2,5-diphenyl-2H-tetrazolium bromide (MTT) assay. Three replicates were performed in each individual experiment, and experiments were repeated at least three separate times. Cells were grown in 96-well plates for 24 hours and were exposed to various concentrations of drugs dissolved in DMSO (final concentration 0.1%) in RPMI 1640 or DMEM containing 1% FBS for 72 hours. 10 μL of 0.5 mg/ml MTT was added to each well and cells were incubated in CO2 at 37° C. for 2 hours. Supernatants were removed from the wells, the reduced MTT dye was solubilized in 100 μL of solution C (12 ml of 1N HCl in 300 mL of isopropanol), and absorbance at 570 nm was determined on a microplate reader.
(§3) We assessed the ability of the compounds to reduce cell viability in vitro by MTT assay after 72 hours of continuous exposure. Results are shown in Table 1 and are depicted as the IC50 vs. simultaneously performed DMSO control.
(§4) ^aThe reported IC50 values are concentrations at which BCPAP, FTC133 and TPC1 cell viability by MTT assays 50% of DMSO control after 72-hours of exposure. Data are presented as mean±standard deviation (n=3). PAK and PDK1 Selectivity In Vivo

CDK5/p25 = CDK5/p25 (Homo sapiens, UniProt Q00535); assay: Kinase profiling panel: CDK5/p25; format: biochemical; conditions: 5 μM compound; average of triplicate
Protocol: (§5) To further probe the selectivity of the compounds 4 and 15, they were subjected for kinase profiling service for screening against a panel of other kinases selected based on the kinase tree at 5 μM concentration, at or above the IC50 for the two compounds versus PAK in both in vitro and cell-based assays. […] PAK1 was not available for testing using this system thus it was not possible to compare directly in this assay system.

CaMKI = CaMKI (Homo sapiens, UniProt Q14012); assay: Kinase profiling panel: CaMKI; format: biochemical; conditions: 5 μM compound; average of triplicate
Protocol: as §5

Src(T341M) = Src(T341M) (Homo sapiens, UniProt P12931, T341M); assay: Kinase profiling panel: Src(T341M); format: biochemical; conditions: 5 μM compound; average of triplicate
Protocol: as §5

ROCK-II = ROCK-II (Homo sapiens, UniProt O75116); assay: Kinase profiling panel: ROCK-II; format: biochemical; conditions: 5 μM compound; average of triplicate
Protocol: as §5

PKCα = PKCα (Homo sapiens, UniProt P17252); assay: Kinase profiling panel: PKCα; format: biochemical; conditions: 5 μM compound; average of triplicate
Protocol: as §5

TPC1 cells = assay: MTT cell viability assay, TPC1; format: cell-based, Human; conditions: Homo sapiens, TPC1, 72-hours of exposure, 1% FBS, mean±standard deviation (n=3), read-out: IC50 for reducing viability of TPC1 cells versus DMSO control
Excerpt: as §1, §2, §3, §4

JAK2 = JAK2 (Homo sapiens, UniProt O60674); assay: Kinase profiling panel: JAK2; format: biochemical; conditions: 5 μM compound; average of triplicate
Protocol: as §5

Recombinant active PAK 1 = biological target: T1, Recombinant active PAK 1 (Homo sapiens, UniProt Q13153); assay: In vitro PAK1 kinase assay (MBP substrate, 32P-ATP); format: biochemical; conditions: for Inhibition of PAK1 kinase activity in initial screen: 7.5 μM inhibitor, 2.5 μM ATP, myelin basic protein substrate (FIG. 2A); for ATP competition for PAK1: ATP 5-40 μM, Lineweaver-Burk analysis (FIG. 2C); for Relative PAK1 inhibitory potency (comparison in words) / IC50: in vitro kinase assay; for Relative PAK1 inhibitory potency (comparison in words): comparison between compounds / with OSU-03012; for IC50: read-out: IC50 versus PAK, in vitro (bound implied by chosen test concentration)
T1 construct: purchased Calbiochem
Protocol: Recombinant active PAK 1 (Calbiochem) was incubated with selected derivatives or 0.1% DMSO in the presence or absence of MBP (Sigma) in a 1× kinase buffer (Cell Signaling). The addition of [γ-32P]-ATP (2.5 μCi/reaction) (Perkin Elmer) started the reaction, which was incubated at 30° C. for 30 minutes. The reaction was terminated by the addition of EDTA. Results were obtained after visualization of ^32P-labeled MBP after separation on 12% polyacrylamide gels and autoradiography. For the Lineweaver-Burk plot analysis, the ratio of radioactive ATP to nonradioactive ATP was not altered. The PAK1 kinase activities are the means of three independent experiments quantified using P81 phosphocellulose paper by a scintillation counter after three washes with 0.75% phosphoric acid.
Screening of OSU-03012 Derivatives to Identify PAK1 Inhibitors. The 17 derivatives along with OSU-03012, each at 7.5 μM, were screened for their ability to inhibit PAK1 activity by in vitro PAK1 kinase assay. The dose was chosen (above the IC50 of OSU-03012) to allow OSU-03012 to serve as a robust positive control. The PAK1 kinase assay was performed using recombinant active PAK1 with myelin basic protein as substrate in the presence of 2.5 μM ATP and 7.5 μM of respective inhibitors.
To further investigate these six compounds, dose-response studies on PAK1 activity were performed by using PAK1 kinase assay. […] We next questioned whether compounds 4 or 15 inhibited PAK1 in an ATP competitive manner as their parent compound OSU-03012.

EGFR = EGFR (Homo sapiens, UniProt P00533); assay: Kinase profiling panel: EGFR; format: biochemical; conditions: 5 μM compound; average of triplicate
Protocol: as §5

GSK3α = GSK3α (Homo sapiens, UniProt P49840); assay: Kinase profiling panel: GSK3α; format: biochemical; conditions: 5 μM compound; average of triplicate
Protocol: as §5

T1 sequence (Q13153 whole entry): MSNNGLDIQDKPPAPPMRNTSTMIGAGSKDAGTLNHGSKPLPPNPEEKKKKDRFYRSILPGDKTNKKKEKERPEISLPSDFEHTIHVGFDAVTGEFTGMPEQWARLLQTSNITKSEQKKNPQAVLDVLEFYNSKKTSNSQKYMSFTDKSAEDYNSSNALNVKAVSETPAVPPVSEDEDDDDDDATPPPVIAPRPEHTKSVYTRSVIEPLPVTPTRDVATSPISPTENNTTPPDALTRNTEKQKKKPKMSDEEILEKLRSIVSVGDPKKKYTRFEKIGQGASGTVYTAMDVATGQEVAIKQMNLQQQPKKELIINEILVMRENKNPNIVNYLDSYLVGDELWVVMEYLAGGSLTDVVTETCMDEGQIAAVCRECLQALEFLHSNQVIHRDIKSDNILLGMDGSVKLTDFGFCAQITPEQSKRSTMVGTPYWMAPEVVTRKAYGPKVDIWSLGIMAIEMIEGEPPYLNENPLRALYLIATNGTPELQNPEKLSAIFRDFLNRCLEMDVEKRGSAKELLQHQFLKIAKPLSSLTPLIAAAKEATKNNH
Sequence of GSK3α (P49840 whole entry, species assumed): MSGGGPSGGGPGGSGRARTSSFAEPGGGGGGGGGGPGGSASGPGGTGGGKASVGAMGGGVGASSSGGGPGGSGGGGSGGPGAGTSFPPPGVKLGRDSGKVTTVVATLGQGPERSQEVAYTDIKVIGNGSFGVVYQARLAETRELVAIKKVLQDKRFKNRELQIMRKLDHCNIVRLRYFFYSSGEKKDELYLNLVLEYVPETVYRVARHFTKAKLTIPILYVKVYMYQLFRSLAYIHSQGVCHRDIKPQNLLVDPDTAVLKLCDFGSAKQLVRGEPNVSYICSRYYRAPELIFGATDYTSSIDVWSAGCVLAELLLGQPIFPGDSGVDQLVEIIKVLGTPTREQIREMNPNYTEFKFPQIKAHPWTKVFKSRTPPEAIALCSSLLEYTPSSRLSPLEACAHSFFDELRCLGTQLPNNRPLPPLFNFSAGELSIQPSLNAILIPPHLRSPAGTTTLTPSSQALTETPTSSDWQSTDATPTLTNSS
Sequence of ROCK-II (O75116 whole entry, species assumed): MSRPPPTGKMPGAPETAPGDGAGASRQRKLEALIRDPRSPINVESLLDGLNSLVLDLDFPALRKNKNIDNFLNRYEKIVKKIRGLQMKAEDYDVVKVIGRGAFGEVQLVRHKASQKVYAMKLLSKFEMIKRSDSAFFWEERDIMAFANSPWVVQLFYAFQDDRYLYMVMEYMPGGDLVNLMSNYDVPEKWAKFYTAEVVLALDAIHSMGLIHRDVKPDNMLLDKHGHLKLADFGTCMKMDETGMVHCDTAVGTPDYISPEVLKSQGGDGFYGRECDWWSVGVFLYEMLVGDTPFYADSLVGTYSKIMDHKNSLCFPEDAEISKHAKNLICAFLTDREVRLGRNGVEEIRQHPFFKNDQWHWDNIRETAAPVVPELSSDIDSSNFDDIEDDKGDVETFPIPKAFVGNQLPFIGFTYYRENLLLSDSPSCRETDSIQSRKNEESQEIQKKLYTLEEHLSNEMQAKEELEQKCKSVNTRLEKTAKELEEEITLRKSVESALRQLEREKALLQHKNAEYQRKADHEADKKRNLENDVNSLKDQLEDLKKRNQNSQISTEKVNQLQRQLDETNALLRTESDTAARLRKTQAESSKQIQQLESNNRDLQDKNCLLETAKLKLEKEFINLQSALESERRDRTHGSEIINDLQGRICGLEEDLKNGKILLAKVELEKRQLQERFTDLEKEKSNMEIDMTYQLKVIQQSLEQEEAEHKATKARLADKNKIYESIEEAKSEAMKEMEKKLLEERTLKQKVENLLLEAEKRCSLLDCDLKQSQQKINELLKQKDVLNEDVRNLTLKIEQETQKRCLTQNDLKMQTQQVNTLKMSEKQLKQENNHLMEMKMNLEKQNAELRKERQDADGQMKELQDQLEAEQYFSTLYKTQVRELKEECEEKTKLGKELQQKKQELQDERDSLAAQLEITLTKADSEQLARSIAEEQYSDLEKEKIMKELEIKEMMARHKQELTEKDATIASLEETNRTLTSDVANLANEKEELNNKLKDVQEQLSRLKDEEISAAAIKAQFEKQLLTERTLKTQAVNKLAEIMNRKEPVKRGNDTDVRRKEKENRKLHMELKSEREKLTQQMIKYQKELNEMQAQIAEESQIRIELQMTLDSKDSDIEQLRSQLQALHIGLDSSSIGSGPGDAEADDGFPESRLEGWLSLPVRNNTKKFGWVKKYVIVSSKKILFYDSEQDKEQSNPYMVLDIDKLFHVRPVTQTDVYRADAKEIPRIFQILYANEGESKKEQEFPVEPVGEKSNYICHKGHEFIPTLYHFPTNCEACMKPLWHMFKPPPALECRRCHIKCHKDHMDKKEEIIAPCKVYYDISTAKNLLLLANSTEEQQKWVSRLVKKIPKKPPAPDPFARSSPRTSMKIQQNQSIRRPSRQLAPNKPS
Sequence of CaMKI (Q14012 whole entry, species assumed): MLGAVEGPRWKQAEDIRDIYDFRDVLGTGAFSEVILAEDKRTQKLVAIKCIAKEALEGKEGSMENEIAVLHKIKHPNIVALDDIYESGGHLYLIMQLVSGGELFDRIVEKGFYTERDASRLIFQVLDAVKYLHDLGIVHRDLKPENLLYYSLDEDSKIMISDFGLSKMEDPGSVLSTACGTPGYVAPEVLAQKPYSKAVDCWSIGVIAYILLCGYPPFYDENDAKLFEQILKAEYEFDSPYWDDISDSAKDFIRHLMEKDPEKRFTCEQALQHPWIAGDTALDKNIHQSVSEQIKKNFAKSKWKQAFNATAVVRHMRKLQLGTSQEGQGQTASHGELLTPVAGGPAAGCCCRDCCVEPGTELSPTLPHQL
Sequence of CDK5/p25 (Q00535 whole entry, species assumed): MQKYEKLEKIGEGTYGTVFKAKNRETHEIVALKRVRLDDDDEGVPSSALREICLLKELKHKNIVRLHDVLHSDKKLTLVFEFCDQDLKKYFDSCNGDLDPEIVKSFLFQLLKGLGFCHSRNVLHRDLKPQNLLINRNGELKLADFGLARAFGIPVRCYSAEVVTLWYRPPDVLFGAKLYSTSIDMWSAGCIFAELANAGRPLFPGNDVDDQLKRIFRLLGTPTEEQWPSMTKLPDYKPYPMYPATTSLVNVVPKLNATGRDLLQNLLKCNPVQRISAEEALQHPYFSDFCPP
Sequence of CDK5/p25 (Q15078 99-307 partner limits assumed, species assumed): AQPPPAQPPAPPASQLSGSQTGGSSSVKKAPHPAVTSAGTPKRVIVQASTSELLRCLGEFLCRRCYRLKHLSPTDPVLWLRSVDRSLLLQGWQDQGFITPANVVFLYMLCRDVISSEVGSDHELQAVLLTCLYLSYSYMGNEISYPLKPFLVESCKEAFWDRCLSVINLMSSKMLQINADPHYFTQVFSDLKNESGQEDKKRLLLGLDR

Row | SMILES | IC50 (BCPAP cells) | % activity vs. DMSO, CDK5/p25 (CDK5/p25) | % activity vs. DMSO, CaMKI (CaMKI) | % activity vs. DMSO, Src(T341M) (Src(T341M)) | % activity vs. DMSO, ROCK-II (ROCK-II) | % activity vs. DMSO, PKCα (PKCα) | IC50 (TPC1 cells) | % activity vs. DMSO, JAK2 (JAK2) | Inhibition of PAK1 kinase activity in initial screen (Recombinant active PAK 1) | ATP competition for PAK1 (Recombinant active PAK 1) | Relative PAK1 inhibitory potency (comparison in words) (Recombinant active PAK 1) | IC50 (Recombinant active PAK 1) | % activity vs. DMSO, EGFR (EGFR) | % activity vs. DMSO, GSK3α (GSK3α)
1 | CC(C)NC(=O)c1cc(-c2ccc3ccc4ccccc4c3c2)n(-c2ccc(NC(=O)CN)cc2)n1 [Compound 15, 1-(4-(2-Aminoacetamido)phenyl)-N-isopropyl-5-(phenanthren-3-yl)-1H-pyrazole-3-carboxamide] | 1.49 ± 0.68 µM | 93% | 68% | 94% | 96% | 92% | 2.66 ± 1.05 µM | 139% | inhibited PAK1 kinase activity | competed with ATP binding to PAK1 | relative enhancement in activity; also recorded: comparable PAK1 inhibitory activity to OSU-03012; also recorded: more potent than the other compounds | ≤ 5 µM | 100% | 118%
2 | NCCC(=O)Nc1ccc(-n2nc(C(F)(F)F)cc2-c2ccc3ccc4ccccc4c3c2)cc1 [Compound 4, 3-amino-N-(4-(5-(phenanthren-3-yl)-3-(trifluoromethyl)-1H-pyrazol-1-yl)phenyl)-propanamide] | 2.07 ± 0.06 µM | 113% | 65% | 105% | 79% | 92% | 1.68 ± 0.32 µM | 152% | inhibited PAK1 kinase activity | competed with ATP binding to PAK1 | comparable PAK1 inhibitory activity to OSU-03012; also recorded: more potent than the other compounds | ≤ 5 µM | 99% | 133%
